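Test compounds were applied to cells in 96-well plates for 48 hours at 5 doses. GI50 marks 50% less growth. TGI is the concentration that stops growth completely.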
Assays:
Assay in all cases: NCI tumour cell line growth inhibition, 48 h
786-0 renal = test system: 786-0 renal
CCRF-CEM leukemia = test system: CCRF-CEM leukemia
EKVX NSCLC = test system: EKVX NSCLC
KM12 colon = test system: KM12 colon
MDA-MB-435 = test system: MDA-MB-435
MOLT-4 leukemia = test system: MOLT-4 leukemia
NCI-H522 lung = test system: NCI-H522 lung
OVCAR-3 ovarian = test system: OVCAR-3 ovarian
OVCAR-8 ovarian = test system: OVCAR-8 ovarian
SF-268 CNS = test system: SF-268 CNS

| Compound | GI50 (786-0 renal) | TGI (786-0 renal) | GI50 (CCRF-CEM leukemia) | TGI (CCRF-CEM leukemia) | GI50 (EKVX NSCLC) | TGI (EKVX NSCLC) | GI50 (KM12 colon) | TGI (KM12 colon) | GI50 (MDA-MB-435) | TGI (MDA-MB-435) | GI50 (MOLT-4 leukemia) | TGI (MOLT-4 leukemia) | GI50 (NCI-H522 lung) | TGI (NCI-H522 lung) | GI50 (OVCAR-3 ovarian) | TGI (OVCAR-3 ovarian) | GI50 (OVCAR-8 ovarian) | TGI (OVCAR-8 ovarian) | GI50 (SF-268 CNS) | TGI (SF-268 CNS) |
| --- | --- | --- | --- | --- | --- | --- | --- | --- | --- | --- | --- | --- | --- | --- | --- | --- | --- | --- | --- | --- |
| O=C(NCCc1ccccn1)OCc1nc2nc(Cl)nc(N3CCOCC3)c2[nH]1 | 1.75 µM | 3.52 µM | 2.18 µM | 9.74 µM | 2.93 µM | 11.3 µM | 2.63 µM | 10.8 µM | 1.33 µM | 2.78 µM | 3 µM | 9.5 µM | 1.93 µM | 4.96 µM | 1.26 µM | 2.73 µM | 3.17 µM | 15.4 µM | 1.69 µM | 3.8 µM |
| C1=C2CCCC3=Cc4ccccc4OC23Oc2ccccc21 | 6.41 µM | > 100 µM | 3.47 µM | 25.9 µM | 5.49 µM | > 100 µM | 3.61 µM | 56.7 µM | 1.64 µM | 4.68 µM | 3.66 µM | > 100 µM | 2.3 µM | 6.2 µM | 3.06 µM | > 100 µM | 4.04 µM | > 100 µM | 4.74 µM | > 100 µM |
| O=C1CCC(N2C(=O)c3ccccc3C2=O)C(=O)N1 (stereo unspecified) | – | > 100 µM | – | > 100 µM | – | > 100 µM | – | > 100 µM | – | > 100 µM | – | > 100 µM | – | > 100 µM | > 100 µM | > 100 µM | – | > 100 µM | – | > 100 µM |
| COC(=O)C1C(O)C(C)C(O)C(C)C=C(C)C2=C3C(=C(C)C(=O)c4c(O)c(c(C)c(OC(C)=O)c43)NC(=O)C(C)=C/C=C\C(C)C(O)C(C)C1O)OCO2 (stereo unspecified) | – | > 100 µM | – | 67 µM | – | > 100 µM | – | 99.6 µM | – | 30.4 µM | – | 51.4 µM | – | 39.4 µM | – | 53 µM | – | > 100 µM | – | 44.9 µM |
| CCCCCC[C@H](C)Nc1nc2ccccc2c2occc12 | 9.87 µM | 21.7 µM | 4.33 µM | 21.1 µM | 2.26 µM | 7.04 µM | 10.6 µM | 32.3 µM | 14.7 µM | 35.2 µM | 3.47 µM | 16.2 µM | 2.26 µM | 13.9 µM | 6.27 µM | 24.3 µM | 10.8 µM | 26.3 µM | > 100 µM | > 100 µM |
| c1cncc(CNCc2cccnc2)c1 | – | > 100 µM | – | > 100 µM | – | > 100 µM | – | > 100 µM | – | > 100 µM | – | > 100 µM | – | > 100 µM | – | > 100 µM | – | > 100 µM | – | > 100 µM |
| O=c1cc(N/N=C/c2ccc(F)cc2)c2cc(Cl)ccc2[nH]1 | 26.3 µM | > 100 µM | 12 µM | > 100 µM | 16.8 µM | > 100 µM | 22 µM | > 100 µM | 13.4 µM | > 100 µM | 4.07 µM | > 100 µM | 17.4 µM | 74.3 µM | 24.8 µM | > 100 µM | 19.8 µM | > 100 µM | 33.6 µM | > 100 µM |
| O=P1(S)OC[C@H]2O[C@@H]3[C@H](F)[C@@H]2OP(O)(=S)OC[C@H]2O[C@H]([C@H](F)[C@@H]2O1)n1cnc2c(ncnc21)NC/C=C/CNc1ncnc2c1ncn23 (stereo partly specified) | > 100 µM | > 100 µM | > 100 µM | > 100 µM | > 100 µM | > 100 µM | > 100 µM | > 100 µM | > 100 µM | > 100 µM | > 100 µM | > 100 µM | > 100 µM | > 100 µM | > 100 µM | > 100 µM | > 100 µM | > 100 µM | > 100 µM | > 100 µM |
| O=C(c1ccccc1)c1c(NCC(O)CN2CCOCC2)n(Cc2ccccc2)c(=O)n(Cc2ccccc2)c1=O (stereo unspecified) | 54.1 µM | > 100 µM | 41.3 µM | > 100 µM | > 48.6 µM | > 90.8 µM | 40.4 µM | > 100 µM | 35.2 µM | > 100 µM | 32.4 µM | > 95.5 µM | 38.9 µM | > 100 µM | 27.6 µM | > 77.3 µM | 48.9 µM | > 100 µM | > 79.8 µM | > 100 µM |
| Cc1nc(Nc2cccnc2)sc1C(=O)/C=C/c1ccc(Cl)cc1 | 1.95 µM | 6.48 µM | 3.31 µM | > 100 µM | 6.99 µM | > 100 µM | 1.98 µM | 4.19 µM | 2.26 µM | 6.46 µM | 3.49 µM | > 100 µM | 2.14 µM | 5.33 µM | 3.27 µM | 16.2 µM | 3.84 µM | > 100 µM | 4.34 µM | > 100 µM |
| CCN(c1cc(-c2ccc(CN3CCOCC3)cc2)cc(C(=O)NCc2c(C)cc(C)[nH]c2=O)c1C)C1CCOCC1 | 17.1 µM | 40.7 µM | 30.6 µM | > 85.4 µM | 33.6 µM | > 100 µM | 19.7 µM | 52 µM | 17.4 µM | 34.6 µM | 21.6 µM | 93.8 µM | 23.6 µM | > 58.5 µM | 25 µM | > 54.6 µM | 37.9 µM | > 100 µM | 26.2 µM | > 93.6 µM |
| COC(=O)COc1ccc(/C=C2/N=C(c3ccccc3)N(c3c(C)n(C)n(-c4ccccc4)c3=O)C2=O)cc1 | 19.7 µM | 37 µM | 13.2 µM | 50.2 µM | 37.8 µM | > 100 µM | 26.6 µM | 84.2 µM | 19.7 µM | 47 µM | 23 µM | 59.8 µM | 17.8 µM | 41 µM | 16.6 µM | 30.7 µM | 18.8 µM | 33.7 µM | 12.8 µM | 30.5 µM |
| CN(C)CCSS(=O)(=O)O | – | > 100 µM | – | > 100 µM | – | > 100 µM | – | > 100 µM | – | > 100 µM | – | > 100 µM | – | > 100 µM | – | > 100 µM | – | > 100 µM | – | > 100 µM |
| O=C1/C(=C/c2ccccc2)CN(C(=O)CCN2CCCC2)C/C1=C\c1ccccc1 | – | 1.94 µM | – | 1.06 µM | – | 7.15 µM | – | 1.82 µM | – | 3.24 µM | – | 1.68 µM | – | 2.8 µM | – | 7.66 µM | – | 6.17 µM | – | 5.8 µM |
| Cc1ccc(S(=O)(=O)c2nc(-c3ccccc3)oc2S(C)=O)cc1 (stereo unspecified) | 1.44 µM | 2.82 µM | 2.77 µM | 8.08 µM | 1.72 µM | 3.4 µM | 1.95 µM | 3.86 µM | 1.53 µM | 3.04 µM | 2.12 µM | 5.5 µM | 1.12 µM | 2.59 µM | 1.03 µM | 2.35 µM | 1.77 µM | 3.79 µM | 2.14 µM | 4.14 µM |
| O=C1CC(c2[nH]nc3ccccc23)C(=O)N1c1ccccc1 (stereo unspecified) | – | > 100 µM | – | > 71.8 µM | – | > 100 µM | – | > 100 µM | – | > 100 µM | – | > 100 µM | – | > 100 µM | – | > 100 µM | – | > 100 µM | – | > 100 µM |
| CC(C)(C)OC(=O)NCCCn1c2c(c3ccccc3c1=O)C(=O)c1ccccc1-2 | 15.1 µM | 41.6 µM | > 100 µM | > 100 µM | 38.9 µM | > 100 µM | 67 µM | > 100 µM | > 100 µM | > 100 µM | > 100 µM | > 100 µM | 42.4 µM | > 100 µM | 8.73 µM | 26.3 µM | 13.3 µM | 58.2 µM | 4.56 µM | 17.7 µM |
| Cc1c2cc(Cl)c3ccccc3c2c[n+]2ccccc12 | 4.11 µM | 33 µM | 3.36 µM | 26.3 µM | 2.46 µM | > 100 µM | 1.95 µM | 9.31 µM | 4.1 µM | 17.9 µM | 4.5 µM | 34.9 µM | 2.13 µM | 12.4 µM | 1.62 µM | 5.41 µM | 2.42 µM | 26.7 µM | 0.364 µM | 1.58 µM |
| CN(C)c1nc2ccccc2c2c1c1c(n2Cc2ccccc2)-c2ccccc2C1=O | > 100 µM | > 100 µM | 62.7 µM | > 100 µM | > 100 µM | > 100 µM | > 100 µM | > 100 µM | > 100 µM | > 100 µM | 25.5 µM | > 100 µM | > 100 µM | > 100 µM | > 100 µM | > 100 µM | > 100 µM | > 100 µM | > 100 µM | > 100 µM |
| Cc1c2c(c(C)c3c4c(oc13)CCCC4)C=NCC2 | – | > 100 µM | – | 29.4 µM | – | 32 µM | – | 33 µM | – | 29.3 µM | – | 45.1 µM | – | 31.3 µM | – | 31.5 µM | – | 23.1 µM | – | 41.2 µM |

Source: PubChem BioAssay (NCI)
